This passage reports activation and EC50 results from patent publication US8293729B2 (Boehringer Ingelheim International GmbH, priority 2009, dated 2012).

Molecules are shown by their SMILES. Bounds are passed on as bounds.

In one assay the target is T1, human GPR119 receptor (Homo sapiens, UniProt Q8TDV5, S329A/T327A).
T1 construct: N-terminal leader […]; expressed in transfected cells
T1 sequence (Q8TDV5 with tags, fused parts or gaps T327A/S329A): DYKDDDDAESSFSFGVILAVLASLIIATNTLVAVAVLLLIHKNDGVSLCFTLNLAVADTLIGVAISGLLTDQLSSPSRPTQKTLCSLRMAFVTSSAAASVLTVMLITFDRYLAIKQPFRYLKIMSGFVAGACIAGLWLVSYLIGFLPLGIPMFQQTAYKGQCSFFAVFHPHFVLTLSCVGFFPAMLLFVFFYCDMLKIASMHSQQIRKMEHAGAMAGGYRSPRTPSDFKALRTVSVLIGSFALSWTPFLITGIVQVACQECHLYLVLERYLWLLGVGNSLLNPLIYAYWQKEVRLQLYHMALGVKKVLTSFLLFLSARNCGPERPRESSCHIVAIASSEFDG
Description: cAMP assay (LANCE cAMP-384) in HEK293 cells stably expressing mutant human GPR119 receptor. The class given is cell-based. The note with it: HEK293, 20 min; single concentration 10 μM; given where no EC50 value could be determined; read-out: % stimulation at 10 μM. How it is done: Quantitative detection of cAMP accumulation from cells expressing human GPR119 receptor was achieved using Perkin Elmer's LANCE cAMP-384 Kit (Cat#AD0264) according to the manufacturer's protocol. Briefly, HEK293 cells stably expressing a mutant form of the human GPR119 receptor (Methionine 1 replaced with the amino acid sequence […] (SEQ ID NO: 1), and T327 & S329 changed to alanines) were grown to 50-70% confluency in cell culture media (DMEM, 10% heat inactivated Fetal Bovine Serum, 50 I.U./mL penicillin, 50 μg/mL streptomycin, 10 mM HEPES, 20 μg/mL G418 Sulfate). On the day of the assay, GPR119 stable HEK293 cells were lifted from the tissue culture plate and 1000 cells/well were incubated along with various concentrations of test compounds for 20 min at 37° C. Detection Buffer (50mM HEPES, 10mM calcium chloride, 0.35% Triton X-100, 1 mg/mL BSA) containing cAMP-specific antibody was then added to all wells and allowed to equilibrate in the dark for 10 minutes at room temperature. Upon equilibration, Detection Buffer containing europium-labeled cAMP tracer complex was added to all wells and allowed to react for 1 hour at room temperature. After 1 hour, bound europium-labeled cAMP tracer was measured using a Perkin Elmer ViewLux. The quantity of cAMP generated in each well was derived from a standard curve. EC50 was determined using nonlinear regression analysis of the cAMP values over a range of agonist concentration (12 points spanning the range from 30 μM to 100pM).
For some compounds for which no EC50 value could be determined, the efficacy is provided at a single concentration (10 μM) yielding % stimulation values.
On the technique in general: Cyclic AMP is a second messenger, typically raised through Gs and lowered through Gi signalling.
Consider `Cc1cccnc1N1CCC(=NOC2CCN(C(=O)OC(C)C)CC2)CC1` [Example 2-7], for which the activation at 10 µM came to 55%.

The same assay, now with this note: cAMP accumulation, HEK293 cells stably expressing mutant human GPR119; read-out: EC50.
As usually defined, the EC50 is the concentration at which the effect is half-maximal. In the case of `CC(C)OC(=O)N1CCC(ON=C2CCN(c3cc(F)c(C4SCCC[S+]4[O-])cc3F)CC2)CC1` (mixture of isomers) [Example 21-1, 4-{1-[2,5-Difluoro-4-(1-oxo-1 lambda*4*-[1,3]dithian-2-yl)-phenyl]-piperidin-4-ylideneaminooxy}-piperidine-1-carboxylic acid isopropyl ester], the EC50 came to 143 nM. The same measure, in the same setting: the value for `CC(C)(C)OC(=O)N1CCC(ON=C2CCN(c3ccc(S(C)(=O)=O)cc3F)CC2)CC1` [Example 1-1, tert-Butyl 4-[1-(2-Fluoro-4-methanesulfonylphenyl)piperidin-4-ylideneaminooxy]piperidine-1-carboxylate] was 29 nM; that for `CC(C)OC(=O)N1CCC(ON=C2CCN(c3ccc(S(C)(=O)=O)cc3F)CC2)CC1` [Example 2-1, 4-[1-(2-Fluoro-4-methanesulfonyl-phenyl)-piperidin-4-ylideneaminooxy]-piperidine-1-carboxylic acid isopropyl ester] was 47 nM; that for `CC(C)OC(=O)N1CCC(ON=C2CCN(c3cc(F)c(C#N)cc3F)CC2)CC1` [Example 2-2] was 397 nM. Still for that read-out and setting: the value for `CC(C)OC(=O)N1CCC(ON=C2CCN(c3cc(F)c(C=O)cc3F)CC2)CC1` [Example 2-3] was 14 nM; that for `CC(C)OC(=O)N1CCC(ON=C2CCN(c3ccnc(O)c3)CC2)CC1` [Example 2-4] was more than 10000 nM. Still for that read-out and setting: the figure for `Cc1cc(N2CCC(=NOC3CCN(C(=O)OC(C)C)CC3)CC2)ccn1` [Example 2-6] is 1480 nM; for `Cc1cccc(N2CCC(=NOC3CCN(C(=O)OC(C)C)CC3)CC2)n1` [Example 2-8] it is more than 10000 nM.

Consider `CC(C)OC(=O)N1CCC(ON=C2CCN(c3ccncc3)CC2)CC1` [Example 2-9], for which the EC50 was more than 10000 nM.

In the case of `CC(C)OC(=O)N1CCC(ON=C2CCN(c3nccnc3Cl)CC2)CC1` [Example 2-10], the concentration giving a half-maximal response (EC50) came out at 363 nM. The same measure, in the same setting: the value for `CC(C)OC(=O)N1CCC(ON=C2CCN(c3cnccn3)CC2)CC1` [Example 2-11] was more than 10000 nM; that for `CC(C)OC(=O)N1CCC(ON=C2CCN(c3ccc(I)cn3)CC2)CC1` [Example 2-12] was 2360 nM. Still for that read-out and setting: the value for `CC(C)OC(=O)N1CCC(ON=C2CCN(c3ncc([N+](=O)[O-])s3)CC2)CC1` [Example 2-13] was 5110 nM; that for `CC(C)OC(=O)N1CCC(ON=C2CCN(c3nncs3)CC2)CC1` [Example 2-14] was more than 10000 nM; that for `CC(C)OC(=O)N1CCC(ON=C2CCN(c3ncnc4ccsc34)CC2)CC1` [Example 2-15] was 4780 nM. Same read-out and setting: the figure for `CC(C)OC(=O)N1CCC(ON=C2CCN(c3ccc(S(C)(=O)=O)cc3)CC2)CC1` [Example 2-16] is 328 nM. Regarding `CC(C)OC(=O)N1CCC(ON=C2CCN(c3ncc(Br)cn3)CC2)CC1` [Example 2-17], the EC50 is 1180 nM. The same measure, in the same setting: the figure for `CC(C)OC(=O)N1CCC(ON=C2CCN(c3ncc(C#N)c(N)n3)CC2)CC1` [Example 2-18] is more than 10000 nM; for `CC(C)OC(=O)N1CCC(ON=C2CCN(c3cc(F)ccc3C=O)CC2)CC1` [Example 2-19] it is 345 nM. Still for that read-out and setting: the value for `CC(C)OC(=O)N1CCC(ON=C2CCN(c3ccc(C=O)c(F)c3)CC2)CC1` [Example 2-20] was 703 nM; that for `CC(C)OC(=O)N1CCC(ON=C2CCN(c3cc(Cl)c(F)cc3C(=O)O)CC2)CC1` [Example 2-21] was more than 10000 nM.

For `CC(C)OC(=O)N1CCC(ON=C2CCN(c3ccc(C=O)cc3F)CC2)CC1` [Example 2-22], the EC50 came to 318 nM.

`CC(=O)c1cc(F)c(N2CCC(=NOC3CCN(C(=O)OC(C)C)CC3)CC2)cc1F` [Example 2-23]: the half-maximal effective concentration (EC50) turned out to be 375 nM. For `CC(C)OC(=O)N1CCC(ON=C2CCN(c3nc(C=O)c(Cl)s3)CC2)CC1` [Example 2-25], the EC50 was more than 10000 nM. Still for that read-out and setting: the figure for `CC(C)OC(=O)N1CCC(ON=C2CCN(c3ccc(CO)c(Cl)n3)CC2)CC1` [Example 2-26] is 758 nM; for `CC(C)OC(=O)N1CCC(ON=C2CCN(c3nc(Cl)ccc3CO)CC2)CC1` [Example 2-27] it is more than 10000 nM; for `CC(C)OC(=O)N1CCC(ON=C2CCN(c3ccc(C=O)cc3)CC2)CC1` [Example 2-28] it is more than 10000 nM.

On to `Cc1cc(C=O)ccc1N1CCC(=NOC2CCN(C(=O)OC(C)C)CC2)CC1` [Example 2-29], for which the EC50 worked out at 3170 nM. Regarding `CC(C)OC(=O)N1CCC(ON=C2CCN(c3ccc(C=O)c(O)c3)CC2)CC1` [Example 2-30], the concentration giving a half-maximal response (EC50) was more than 10000 nM. Regarding `CC(C)OC(=O)N1CCC(ON=C2CCN(c3ccc(C=O)cc3Cl)CC2)CC1` [Example 2-31], the 50% effective concentration (EC50) was 1250 nM.

As for `CC(C)OC(=O)N1CCC(ON=C2CCN(c3cc(F)c(C(N)=O)cc3F)CC2)CC1` [Example 2-32], the EC50 was found to be 25 nM. As for `COC(=O)c1nc(Cl)c(N2CCC(=NOC3CCN(C(=O)OC(C)C)CC3)CC2)nc1N` [Example 2-34], the EC50 was more than 10000 nM. Take `CC(C)OC(=O)N1CCC(ON=C2CCN(c3ccc(S(N)(=O)=O)cc3F)CC2)CC1` [Example 2-36]: the EC50 was found to be 130 nM. On to `CC(C)OC(=O)N1CCC(ON=C2CCN(c3ncccc3F)CC2)CC1` [Example 2-37], for which the EC50 was 630 nM. On the same count and under the same terms, the figure for `CC(C)OC(=O)N1CCC(ON=C2CCN(c3ccc4c(c3)CCC4=O)CC2)CC1` [Example 2-38] is more than 10000 nM. Still for that read-out and setting: the figure for `CC(C)OC(=O)N1CCC(ON=C2CCN(c3c(Cl)cncc3Cl)CC2)CC1` [Example 2-39] is 1680 nM. On to `CC(C)OC(=O)N1CCC(ON=C2CCN(c3cc(F)c(Br)cc3F)CC2)CC1` [Example 2-40], for which the EC50 was 2000 nM. `CC(C)OC(=O)N1CCC(ON=C2CCN(c3cc(F)c([S+](C)[O-])cc3F)CC2)CC1` (stereo not shown) [Example 2-41]: the EC50 was 58 nM. On to `CC(C)OC(=O)N1CCC(ON=C2CCN(c3nccc(N(C)C)n3)CC2)CC1` [Example 2-44], for which the EC50 is more than 10000 nM. Turning to `CC(C)OC(=O)N1CCC(ON=C2CCN(c3ccnc(Cl)n3)CC2)CC1` [Example 2-46], the EC50 was found to be 1880 nM. On to `CC(C)OC(=O)N1CCC(ON=C2CCN(c3nccc(Cl)n3)CC2)CC1` [Example 2-47], for which the 50% effective concentration (EC50) turned out to be 2010 nM. For the molecule `CCOC(=O)CC(=O)c1cc(F)c(N2CCC(=NOC3CCN(C(=O)OC(C)C)CC3)CC2)nc1Cl` [Example 2-48], the EC50 worked out at 146 nM. In the case of `CC(C)OC(=O)N1CCC(ON=C2CCN(c3nc(Cl)ncc3Cl)CC2)CC1` [Example 2-49], the EC50 was 170 nM. As for `CC(C)OC(=O)N1CCC(ON=C2CCN(c3ncc(Cl)c(Cl)n3)CC2)CC1` [Example 2-50], the EC50 is more than 10000 nM. Still for that read-out and setting: the value for `Cc1cnccc1N1CCC(=NOC2CCN(C(=O)OC(C)C)CC2)CC1` [Example 2-51] was 951 nM; that for `Cc1c(Cl)ncnc1N1CCC(=NOC2CCN(C(=O)OC(C)C)CC2)CC1` [Example 2-52] was 653 nM; that for `CC(C)OC(=O)N1CCC(ON=C2CCN(c3ccc(CO)cc3)CC2)CC1` [Example 2-53] was more than 10000 nM.

The same assay, now with this note: the 31st table; read-out: EC50.
Consider `CC(C)OC(=O)N1CCC(ON=C2CCCN(c3ccc(S(C)(=O)=O)cc3F)C2)CC1` (mixture of isomers) [Example 61-1, 4-[1-(2-Fluoro-4-methanesulfonyl-phenyl)-piperidin-(3Z)-ylideneaminooxy]-piperidine-1-carboxylic acid isopropyl ester], for which the EC50 was more than 10000 nM.
